Experimental data published in US11912785B2, “Peptide compositions for slowing degradation of vitamin mineral supplements, foods, pharmaceutical and cosmetics” (priority 2017, dated 2024).
Blank lines part the entries; values can stand above or below the molecule they belong to. No end group written: not given here.

Assays:
[1] = USP type 2 dissolution of Product #1a with peptide in the medium; details: for ascorbic acid recovered / maintained (in words): 0.25 mM, 45 min
Description: (§1) The dissolution studies described herein used a U.S. Pharmacopeia (USP) type 2 apparatus with 500 ml distilled H2O at 37° C. stirred at 50 RPM. […] Oxygen concentration was monitored with a Clarke electrode calibrated against argon and air sparged water at 37 C. The disappearance of several components was gauged against a mixture of pure standards of known concentration.
Product #1a also contained caffeine.

[2] = USP type 2 dissolution of Product #1b with copper added as CuSO4 and peptide; assay type: physicochemical
Description: as §1

[3] = Effect of cupric sulfate on vitamin B12, thiamine, folic acid and sodium ascorbate in MES pH 6.2; assay type: physicochemical; details: 3 mM peptide; 10 mM MES pH 6.2, 150 μM cupric sulfate
Description: In the presence of 3 mM 1,1,1-triaspartate (as the tetra-sodium salt) the loss of Vitamin B12 was limited to about 20% even after 2 hours. Thiamine also rapidly disappeared by 40% over the first 26 minutes and then remained constant in the absence of an aspartate peptide. However, with 3 mM Asp-Asp-Asp included only 8% was lost at 36 min.

[4] = Decay of 5-MTHF in HEPES pH 7.2 with cupric sulfate and peptide; assay type: physicochemical; details: for half-life of 5-MTHF: 150 μM cupric sulfate
Description: (§2) Aqueous solutions of air saturated buffer, peptide, one or more vitamins, and metal salt (e.g. ferrous chloride or cupric sulfate) were combined and incubated at 37 C, unless otherwise stated. Samples were injected into the HPLC system as a function of time and monitored by a photodiode array detector.

[5] = Effect of cupric sulfate on folic acid plus sodium ascorbate in various buffers; details: for initial ascorbate lost after 2 hours: 10 mM HEPES pH 7.2, 150 μM cupric sulfate
Description: as §2
Reactions were continuously but slow sparged with air so that oxygen would not become limiting.

[6] = Decomposition of 5-MTHF in 1 mM HCl with cupric sulfate; assay type: physicochemical; details: 3 mM peptide, 150 μM cupric sulfate, 37 C
Description: The decomposition of 5-MTHF is slower in acidic solutions than at neutral pH, and this was found even in the presence of cupric ions. […] With 3 mM 1,1,1-triaspartic free acid also present the time to half decomposition was increased to around 30 minutes.

[7] = Water uptake and handling of peptide salts on exposure to atmosphere or humidity; assay type: physicochemical; details: for handling state after exposure to the atmosphere / weight gain (water) when left open to the atmosphere: ambient
Description: One such matrix is microcrystalline cellulose which is commonly used as an excipient in vitamin and mineral products. A method of combining the peptide salt with the excipient was also developed in which the former is dissolved in a suitable solvent, for example water, the excipient added with stirring, and removing the solvent from the mixture, for example by rotary evaporation under reduced pressure or lyophilization.
The resulting material was crushed to pass through a 200 mesh sieve.
The precipitate was resuspended in 0.5 ml ice-cold water, centrifuged again, and the second supernate discarded.
The precipitate was resuspended in 0.5 ml ice-cold water, recentrifuged, and the second supernate discarded. […] This was centrifuged and dried under high vacuum over P2O5.

[8] = Decay of sodium ascorbate in HEPES pH 7.2 with 63 μM cupric sulfate; assay type: physicochemical
Description: Example 11 The effect of 1,1,1-Ala-Asp-Asp on the decay of sodium ascorbate in 10 mM HEPES pH 7.2 at 37 was compared with 1,1,1-triaspartate in the presence of 63 μM cupric sulfate (equivalent to 2 mg of elemental copper per 500 mL). […] This difference is somewhat offset by the ˜12% lower molecular weight of the former.

[9] = product #2; 1 mM peptide
Description: as §1

[10] = 3 mM peptide, 3 mM ferrous chloride, 40 mM MES pH 6.2
Description: as §2

[11] = 3 mM peptide, 50 mM MES pH 5.5, 150 μM cupric sulfate
[12] = 2 mM peptide, 25 μM 5-MTHF, 10 mM HEPES pH 7.2, 37 C

Molecule: N[C@@H](CC(=O)O)C(=O)O [aspartic acid, reference compound]
- rate of oxygen consumption compared with no peptide ([1]; Product #1a, 0.25 mM peptide): no improvement
- ascorbic acid recovered / maintained (in words) ([1]; Product #1a): no improvement

- EC50 ([2]; copper added as CuSO4, peptide 0.05 to 0.5 mM, hyperbolic fit, read-out: concentration required for 50% of maximal effectiveness in preventing ascorbate loss): ~50 µM
Molecule: Asp-Asp-Asp
- extent of caffeine oxidation to 1,3,7-trimethyluric acid compared with no peptide ([1]; Product #1a, 0.25 mM peptide): more than halved
- folic acid in filtrate, of the labeled amount, 10 minute sample ([1]; Product #1a, 0.25 mM peptide): about 55%
- folic acid in filtrate, of the labeled amount, 45 minute sample ([1]; Product #1a, 0.25 mM peptide): about 70%
- p-aminobenzoyl-glutamate in the final sonicated sample compared with absence of peptide ([1]; Product #1a, 0.25 mM peptide): decreased to half
- thiamine present at 45 minutes, of labeled content ([1]; Product #1a, 0.25 mM peptide): 104%
- thiamine present at 45 minutes, of the actual content of the tablets ([1]; Product #1a, 0.25 mM peptide): 83%
- concentration required for half maximal effect in preventing loss of ascorbate ([2]; 1 mg of copper added as CuSO4, compared with 2 mg): somewhat lower concentration
- thiamine lost at 36 min [3]: 8%
- half-life of 5-MTHF (in words) ([4]; 0.5 mM peptide): longer than Asp2
- folic acid recovered after 82 minutes [5, 11]: more than 50%
- time until ascorbate completely consumed [5, 11]: 47 min
- time to half decomposition of 5-MTHF [6]: around 30 minutes

- weight gain (water) when left open to the atmosphere ([7]; open to the atmosphere): ~10%
Molecule: Calcium1.5-1,1,1-triaspartate [Example D]
- handling state after 24 hours at 90% RH ([7]; 90% RH, 24 hours): clumped slightly, but was easy to break up and was not sticky
- handling state after exposure to the atmosphere ([7]; open to the atmosphere): remained free flowing flakes that were never sticky

Molecule: penta-sodium 1,1,1,1-tetraaspartate (DDDD; also: penta-sodium salt)
- effectiveness compared with triaspartic acid on a molar basis [4]: just as effective on a molar basis
- half-life of 5-MTHF [4, 12]: 2.97 h

Molecule: tri-sodium 1,1-diaspartate
- profile of folic acid appearance in solution ([1]; Product #1a, 0.25 mM peptide): greater than without any peptide, and similar to that liberated by 0.05 mM Asp-Asp-Asp
- profile of p-aminobenzoyl-glutamate formation ([1]; Product #1a, 0.25 mM peptide): suppressed in comparison to without any peptide, and similar to 0.05 mM Asp-Asp-Asp
- profile of thiamine appearance in solution ([1]; Product #1a, 0.25 mM peptide): not significantly different than without peptide
- rate of oxygen consumption compared with no peptide ([1]; Product #1a, 0.25 mM peptide): less than without a peptide
- ascorbic acid recovered / maintained (in words) ([1]; Product #1a): greater than with no Asp2 but somewhat less than in the presence of 0.25 mM Asp-Asp-Asp
- half-life of 5-MTHF [4, 12]: 1.2 h
- half-life of 5-MTHF ([4]; 3 mM peptide, HEPES pH 7.2, 37 C): 1.45 h
- half-life of 5-MTHF ([4]; 4 mM peptide, HEPES pH 7.2, 37 C): 1.67 h

Molecule: tri-sodium 1,1,1-His-Asp-Asp [reference compound]
- maintenance of ascorbate or thiamine, diminishing oxygen consumption, or oxidation of other components ([1]; Product #1a, 0.25 mM peptide, pH ~6.5): No improvement

Molecule: N-acetyl-1,1,1-triaspartic acid [reference compound]
- ability to inhibit oxidative destruction of other multivitamin components ([1]; test conditions not stated): lack of effectiveness

- weight gain (water) when left open to the atmosphere ([7]; open to the atmosphere): 13%
Molecule: Ferrous 1,1,1-triaspartate [Example P]
- color / oxidation when open to air via a drying tube ([7]; open to air via a drying tube): did not change color or significantly oxidize
- color / oxidation when kept open to the atmosphere ([7]; open to the atmosphere, several days): became dark brown due to partial oxidation to iron(III)

Molecule: 1,1,1-Ala-Asp-Asp
- effectiveness compared with triaspartic acid on a molar basis [8]: about half as effective
- 1st-order rate of ascorbate loss compared with Asp-Asp-Asp ([8]; 0.25 mM peptide, 63 μM cupric sulfate, 10 mM HEPES pH 7.2, 37): almost twice as fast

Molecule: Asp-Asp-Asp tetrasodium salt [tetra-sodium 1,1,1-triaspartate, Tetra-sodium-1,1,1-triaspartate]
- handling state after exposure to the atmosphere ([7]; open to the atmosphere): became sticky
- weight gain (water) when left open to the atmosphere ([7]; open to the atmosphere): 14%
- ascorbic acid recovered after 45 min, higher than with water only ([1]; Product #1a, 0.125 mmole peptide in 500 mL (0.25 mM), initial pH ~6.5, 37° C.): about 16 fold
- oxygen remaining after 45 min, part of the original concentration ([1]; Product #1a, 0.25 mM peptide): about a third
- rate of oxygen consumption compared with no peptide ([1]; Product #1a, 0.25 mM peptide): dramatically decreased
- increase of average recovery of ascorbic acid at 45 minutes over no peptide [9]: 16%
- increase of average recovery of thiamine at 45 minutes over no added peptide [9]: 20%
- loss of Vitamin B12 after 2 hours [3]: about 20%
- half-life of 5-MTHF [4, 12]: 3.3 h
- time without significant loss of 5-MTHF [10]: about 50 minutes
- decrease of 5-MTHF thereafter ([10]; after about 50 minutes): about 17 % per hour
- initial ascorbate lost after 2 hours ([5]; 1 mM peptide): 33%
- initial ascorbate lost after 2 hours ([5]; 3 mM peptide): 18%
- ascorbate remaining by 32 minutes ([5]; 3 mM peptide, 10 mM MES pH 6.2, 150 μM cupric sulfate, air sparged): 35%
